Assay [1] has as its system activated neutrophils. As to the kind of experiment: neutrophil activation: superoxide production (WST-1). In kind it is cell-based, rat. As to conditions: 100 μg/ml, positive control. On the procedure: The in vitro anti-inflammatory screening assay used in this investigation involved determining the effect of a test material on activated neutrophils. The production of superoxide was measured. Neutrophils were prepared from fresh rat blood and diluted with phosphate-buffered saline (PBS) and adjusted to a concentration of 10^7 cells per ml. The purity of the preparation was 95% or higher. The test sample was pre-incubated with a cell suspension at 37° C. for 15 minutes in wells of a 96 well culture plate. Then catalase and WST-1 dye reagent were added to each incubate (including controls). Each was then activated with phorbol myristate acetate (100 ng/ml). After incubation for 1 hr at 37° C. the reaction was stopped and the level of superoxide produced from oxidation of the dye WST by the superoxide in each well of the plate determined calorimetrically at 450 nm. As a positive control, triplicate wells with aspirin (100 μg/ml) were assayed. Each sample was assessed at three different concentrations.

The test system of assay [2] is rat monocytes. As to the kind of experiment: macrophage assay: conversion of monocytes to macrophages (nitric oxide, Griess). In kind it is cell-based. As to the method:
A diluent composed of RPMI culture media containing 10% foetal calf serum (FCS) was prepared. A density gradient barrier was prepared by mixing a working solution [Optiprep: diluent, 2:1, v/v] with further diluent in a ratio of 2.3 to 5.0. The density of 1.076 g/ml is required for isolating rat monocytes. Freshly isolated rat blood was cooled to 4° C. 5 ml of the density gradient was layered over 5 ml of the blood and 5 ml of diluent was then layered gently on top. After centrifuging at 700 g for 30 min at 4° C., the monocytes were collected from the top of the 1.076 g/ml layer and diluted with 2 volumes of diluent and the pellet was gently resuspended in Hanks Balanced Salt Solution (HBSS). The cell concentration and the relative purity were determined. 500 μl Aliquots of cell suspension were used. […] 10 μl of LPS (5 mg/ml) was then added to all tubes, except the control, to give a final concentration of LPS of approximately 20 μg/ml. The cells were incubated overnight at 37° C. and then centrifuged at 12,000 g (4° C.) for 5 min. The supernatants were collected and aliquots of these were then assayed in duplicate for the concentration of nitric oxide (NO) by the Griess reagent procedure using a kit (Sigma, St Louis, USA).

This note sets out measurements from patent publication US20080193549A1, “Hoki Fish Liver Oil, Fractions Thereof And Therapeutic Uses” (Otago Innovation Limited, priority 2004, published 2008).

As for `CC(=O)Oc1ccccc1C(=O)O` [Aspirin, aspirin], in assay [1], the “Absorbance units (superoxide production)” value was 0.3095 Absorbance units. The inhibition at 100 µg/mL in assay [1] (Rattus norvegicus, Neutrophil) is 46.9%.
Turning to `CNC(=N)NCCC[C@H](N)C(=O)O` [L-NMMA], in assay [2] (2.5 μM), the “% Inhibition of conversion of monocytes to macrophages (NO production)” value came to 44.94% and the “Absorbance units (nitric oxide production)” value is reported as 1.568 Absorbance units. In assay [2] (5 μM), the “% Inhibition of conversion of monocytes to macrophages (NO production)” value came to 75.07% and the “Absorbance units (nitric oxide production)” value was 0.710 Absorbance units.
